Laboratory results as given in US6967196B1, “Sulfonamide compounds and uses thereof” (Bristol-Myers Squibb Company, priority 1999, dated 2005).
pIC50: −log10 of the molar value. Where a name gives a salt, the structure may show the parent alone. Read-outs that look alike come from different tables or passages of the source.

System: amyloid β production in transfected H4 (human neuroglioma) cells stably expressing APP constructs
Assay: In vitro cell-based assay of inhibitors of amyloid β production (ELISA)
Conditions: amyloid β in medium by ELISA, read-out: ACTIVITY (IC50, inhibition of amyloid β production)
Outline: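 Cells expressing wild-type or variant APP were plated ≥6 h before medium was replaced with compound-containing medium (initial screen 10-100 μM) and incubated ~16 h. Secreted Aβ in medium was quantified by sandwich ELISA (C-terminal-specific mouse monoclonal capture, N-terminal rabbit polyclonal detection) against an Aβ standard curve.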

[1] = transfected H4 cells stably expressing APP, approximately 16 hours incubation
[2] = transfected H4 cells stably expressing APP, approximately 16 hours incubation, Table B
[3] = transfected H4 cells stably expressing APP constructs, approximately 16 hours incubation
[4] = transfected H4 cells stably expressing APP, approx. 16 h incubation
[5] = Homo sapiens, 16 h, transfected H4 cells stably expressing APP constructs, approximately 16 hours incubation
[6] = Homo sapiens, 16 h, transfected H4 cells stably expressing APP, approximately 16 hours incubation

Compound: N-{3-[2-(1-{[(4-chlorophenyl)sulfonyl]-2,5-difluoroanilino}ethyl)phenoxy]propyl}-2-naphthamide [Example 808]
- pIC50 [1]: 6.30 to 7.00

Compound: COC(=O)CSCCc1cc(F)ccc1[C@@H](C)N(c1cc(F)ccc1F)S(=O)(=O)c1ccc(Cl)cc1 [Example 477, Methyl ({2-[2-((1R)-1-[[(4-chlorophenyl)sulfonyl]-2,5-difluoroanilino}ethyl)-5-fluorophenyl]ethyl}sulfanyl)acetate]
- pIC50 [2]: 6.30 to 7.00

Compound: C[C@H](c1ccc(F)cc1CN1CCS(=O)(=O)CC1)N(c1cc(F)ccc1F)S(=O)(=O)c1ccc(Cl)cc1 [Example 405]
- pIC50 (Homo sapiens, 16 h, transfected H4 cells stably expressing APP, approximately 16 hours incubation, Table B): 7.00 to 7.30

Compound: CSC1CCCN(CCC[C@@H](C)N(c2cc(Cl)ccc2Cl)S(=O)(=O)c2ccc(Cl)cc2)C1 (stereo partly drawn) [Example 1153, 4-chloro-N-(2,5-dichlorophenyl)-N-[4-[(3-methylthio)-1-piperidinyl]-1(R)-methylbutyl]benzenesulfonamide]
- pIC50 [3]: 6.30 to 7.00

Compound: 4-chloro-N-(2,5-difluorophenyl)-N-[(1R)-1-(4-[(ethylsulfonyl)amino]butyl}-4-fluorophenyl)ethyl]benzenesulfonamide [Example 1075]
- pIC50 [1]: < 6.30

Compound: CC(c1ccccc1OCCCN(C)C(=O)c1ccccc1I)N(c1cc(F)ccc1F)S(=O)(=O)c1ccc(Cl)cc1 (stereo not shown) [Example 637]
- pIC50 [4]: 6.30 to 7.00

Compound: CCCCC(=O)N(C)CCCOc1ccccc1CN(c1cc(F)ccc1F)S(=O)(=O)c1ccc(Cl)cc1 [Example 717, N-{3-[2-({[(4-chlorophenyl)sulfonyl]-2,5-difluoroanilino}methyl)phenoxy]propyl}-N-methylpentamide]
- pIC50 [4]: 6.30 to 7.00

Compound: [2-((1R)-1-{[(4-chlorophenyl)sulfonyl]-2,5-difluoroanilino}ethyl)-5-fluorophenyl]methanesulfonic acid [Example 1009]
- pIC50 [1]: < 6.30

Compound: O=S(=O)(c1ccccc1)N(Cc1ccccc1CCCO)c1ccccc1 [Example 1088, N-[2-(3-hydroxypropyl)benzyl]-N-phenylbenzenesulfonamide]
- pIC50 [5]: < 5.00

Compound: O=S(=O)(c1ccc(Cl)cc1)N(Cc1ccccc1OCCCBr)c1ccccc1 [Example 1039, N-[2-(3-bromopropoxy)benzyl]-4-chloro-N-phenylbenzenesulfonamide]
- pIC50 [6]: < 6.30

Compound: (2E)-N-{4-[2-(1-{[(4-chlorophenyl)sulfonyl]-2,5-difluoroanilino}ethyl)phenoxy]butyl}-N-methyl-2-butenamide [Example 495]
- pIC50 [2]: 6.30 to 7.00

Compound: N-{2-[2-(1-{[(4-chlorophenyl)sulfonyl]-2,5-difluoroanilino}ethyl)phenoxy]ethyl}-N-ethyl-2-(2-thienyl)acetamide [Example 705]
- pIC50 [4]: 6.30 to 7.00

Compound: N-{3-[2-(1-{[(4-chlorophenyl)sulfonyl]-2,5-difluoroanilino}ethyl)phenoxy]propyl}-4-iodobenzamide [Example 824]
- pIC50 [1]: 6.30 to 7.00

Compound: N-{3-[2-(1-{[(4-chlorophenyl)sulfonyl]-2,5-difluoroanilino}ethyl)phenoxy]propyl}-N-methyl-3-nitrobenzamide [Example 737]
- pIC50 [4]: 6.30 to 7.00

Compound: N-{2-[2-(1-{[(4-chlorophenyl)sulfonyl]-2,5-difluoroanilino}ethyl)phenoxy]ethyl}-N,2-diethylhexanamide [Example 831]
- pIC50 [1]: 6.30 to 7.00

Compound: 4-bromo-N-{3-[2-(1-{[(4-chlorophenyl)sulfonyl]-2,5-difluoroanilino}ethyl)phenoxy]propyl}-N-methylbenzamide [Example 683]
- pIC50 [4]: 6.30 to 7.00

Compound: C[C@H](COC(=O)N(C)CCCn1ccnc1)N(c1cc(Cl)ccc1Cl)S(=O)(=O)c1ccc(Cl)cc1 [Example 1250, 4-Chloro-N-(2,5-dichlorophenyl)-N-[2-[[[N′-[3-(1H-imidazol-1-yl)propyl]-N′-methylamino]carbonyl]oxy]-(R)-1-methylethyl]benzenesulfonamide]
- pIC50 [3]: ≥ 7.60

Compound: CN1CCCC1CCOc1ccccc1CN(c1ccccc1)S(=O)(=O)c1ccc(Cl)cc1 (stereo not shown) [Example 277, 4-Chloro-N-{2-[2-(1-methyl-2-pyrrolidinyl)ethoxy]benzyl}-N-phenylbenzenesulfonamide Hydrochloride]
- pIC50 [2]: 7.30 to 7.60

Compound: 2-((1R)-1-{[(4-chlorophenyl)sulfonyl]-2,5-difluoroanilino}ethyl)-5-fluorobenzyl 3-fluorobenzylcarbamate [Example 764]
- pIC50 [4]: 6.30 to 7.00

Compound: O=S(=O)(c1ccc(Cl)cc1)N(Cc1ccccc1OCCC1CCCN1)c1ccccc1 (stereo not shown) [Example 963, 4-chloro-N-phenyl-N-{2-[2-(2-pyrrolidinyl)ethoxy]benzyl}benzenesulfonamide hydrochloride]
- pIC50 [6]: < 6.30

Compound: O=S(=O)(CCOc1ccccc1CN(c1cc(F)ccc1F)S(=O)(=O)c1ccc(Cl)cc1)C1CCCCC1 [Example 754, 4-chloro-N-{2-[2-(cyclohexylfulfonyl)ethoxy]benzyl}-N-(2,5-difluorophenyl)benzenesulfonamide]
- pIC50 [4]: 6.30 to 7.00

Compound: N-{3-[2-(1-{[(4-chlorophenyl)sulfonyl]-2,5-difluoroanilino}ethyl)phenoxy]propyl}-2,3,4,5,6-pentafluoro-N-methylbenzamide [Example 828]
- pIC50 [1]: 6.30 to 7.00

Compound: C[C@H](C(=O)NCc1ccccn1)N(c1cc(Cl)ccc1F)S(=O)(=O)c1ccc(Cl)cc1 [Example 610]
- pIC50 [4]: 6.30 to 7.00

Compound: CC(c1ccccc1OCCCNC(=O)c1cccc(F)c1)N(c1cc(F)ccc1F)S(=O)(=O)c1ccc(Cl)cc1 (stereo not shown) [Example 761]
- pIC50 [4]: 6.30 to 7.00

Compound: CSCCC[C@@H](C)N(c1cc(Cl)ccc1Cl)S(=O)(=O)c1ccc(Cl)cc1 [Example 1176, 4-chloro-N-[2,5-dichlorophenyl]-N-[1(R)-methyl-(4-methylthio)butyl]benzenesulfonamide]
- pIC50 [3]: ≥ 7.60

Compound: N-{4-[2-(1-{[(4-chlorophenyl)sulfonyl]-2,5-difluoroanilino}ethyl)phenoxy]butyl}-N-ethyl-2-thiophenecarboxamide [Example 756]
- pIC50 [4]: 6.30 to 7.00

Compound: COC(=O)[C@@H](N)CS(=O)(=O)CCCc1cc(F)ccc1[C@@H](C)N(c1cc(F)ccc1F)S(=O)(=O)c1ccc(Cl)cc1 [Example 487, Methyl (2R)-2-amino-3-({3-[2-((1R)-1-{[(4-chlorophenyl)sulfonyl]-2,5-difluoroanilino}ethyl)-5-fluorophenyl]propyl}sulfonyl)propanoate Hydrochloride]
- pIC50 [2]: 6.30 to 7.00

Compound: CC(C)C[C@H](NC(=O)CCCC[C@@H](C)N(c1cc(Cl)ccc1F)S(=O)(=O)c1ccc(Cl)cc1)C(=O)O [Example 548, (R)-4-Chloro-N-(5-chloro-2-fluorophenyl)-N-[6-[N-(S)-[1-(carboxy)-3-methylbutyl]amino]-1-methyl-6-oxohexyl]benzenesulfonamide]
- pIC50 [4]: 6.30 to 7.00

Compound: CC1CCCC(NC(=O)[C@@H](C)N(c2cc(Cl)ccc2F)S(=O)(=O)c2ccc(Cl)cc2)C1 (stereo partly shown) [Example 1347]
- pIC50 (Homo sapiens, 16 h, transfected H4 cells expressing APP, approximately 16 hours incubation): 6.30 to 7.00

Compound: COC(=O)C1SCCN1CCC[C@@H](C)N(c1cc(Cl)ccc1Cl)S(=O)(=O)c1ccc(Cl)cc1 (stereo partly drawn) [Example 1105, 4-chloro-N-(2,5-dichlorophenyl)-N-[4-(2-methoxycarbonyl-3-thiazolidinyl)-1(R)-methylbutyl]benzenesulfonamide]
- pIC50 [5]: ≥ 7.60

Compound: N-{2-[2-(1-{[(4-chlorophenyl)sulfonyl]-2,5-difluoroanilino}ethyl)phenoxy]ethyl}-N-ethylacrylamide [Example 949]
- pIC50 [1]: < 6.30

Compound: 2-((1R)-1-{[(4-chlorophenyl)sulfonyl]-2,5-difluoroanilino}ethyl)benzyl 1,2,3,4-tetrahydro-1-naphthalenylcarbamate [Example 660]
- pIC50 [4]: 6.30 to 7.00

Compound: C[C@H](CCCSc1ccccc1)N(c1cc(Cl)ccc1CO)S(=O)(=O)c1ccc(Cl)cc1 [Example 1226, 4-chloro-N-[5-chloro-2-(hydroxymethyl)phenyl]-N-[1(R)-methyl-(4-phenylthio)butyl]benzenesulfonamide]
- pIC50 [3]: ≥ 7.60

Compound: C[C@H](c1ccc(F)cc1COC(=O)NCc1ccco1)N(c1cc(F)ccc1F)S(=O)(=O)c1ccc(Cl)cc1 [Example 691, 2-((1R)-1-{[(4-chlorophenyl)sulfonyl]-2,5-difluoroanilino}ethyl)-5-fluorobenzyl 2-furylmethylcarbamate]
- pIC50 [4]: 6.30 to 7.00

Compound: CCNS(=O)(=O)CCC[C@@H](C)N(c1cc(Cl)ccc1Cl)S(=O)(=O)c1ccc(Cl)cc1 [Example 1208, 4-chloro-N-[2,5-dichlorophenyl]-N-[4-[(ethylamino)sulfonyl]-1(R)-methylbutyl]benzenesulfonamide]
- pIC50 [5]: ≥ 7.60

Compound: 2,2,2-trichloro-N-{2-[2-(1-{[(4-chlorophenyl)sulfonyl]-2,5-difluoroanilino}ethyl)phenoxy]ethyl}-N-ethylacetamide [Example 744]
- pIC50 [4]: 6.30 to 7.00

Compound: O=S(=O)(c1ccc(Cl)cc1)N(Cc1ccccc1OCCCN1CCC(Cc2ccccc2)CC1)c1ccccc1 [Example 290, N-{2-[3-(4-benzyl-1-piperidinyl)propoxy]benzyl}-4-chloro-N-phenylbenzenesulfonamide Hydrochloride]
- pIC50 [2]: 7.30 to 7.60
